The text below walks through data of patent US8080517B2, “Cell-permeable peptide inhibitors of the JNK signal transduction pathway” (Xigen SA, priority 2005, dated 2011).

“Also recorded” adds a separate entry of the source. Where a SMILES comes first, the peptide text is derived from it. [ ]: non-standard residue; d: D form.

One assay deals with WiDr cells. The assay is described as follows: Irradiation (30 Gy) induced apoptosis. Particulars: 1 μM added 30 minutes before 30 Gy, analyzed 48 hours later. The class given is cell-based, human. On the procedure: JNK is also activated by ionizing radiation. To determine whether inventive TAT-IB(s) peptides would provide protection against radiation-induced JNK damage, “WiDr” cells were irradiated (30 Gy) in presence or absence of D-TAT, inventive L-TAT-IB1(s) or inventive D-TAT-IB1(s) peptides (1 μM added 30 minutes before irradiation). Control cells (CTRL) were not irradiated. Cells were analyzed 48 hours later by means of PI and Hoechst 3342 staining, as described above. N=3, SEM are indicated.

Assay [1] in a line: Noise trauma, hearing threshold shifts by auditory brainstem response. It is filed as in vivo, guinea pigs. Here is the method:
D-TAT-IB1(s) was applied onto the round window membrane of the cochlea of 3 groups of guinea pigs (each group with 6 animals) in 2 microliters of a gel formulation of 2.6% buffered hyaluronic acid (Hylumed, Genzyme Corp.) at a concentration of 100 µM either 30 minutes before noise trauma (120 dB at 6 kHz during 30 minutes) or 30 minutes or 4 hours thereafter. Untreated ears served as control. Hearing threshold shifts were evaluated by auditory brainstem response measurements 20 minutes after noise trauma (temporary threshold shift, TTS) and 15 days following the trauma (permanent threshold shift, PTS). […] Thus, D-TAT-IB1 (s) is a very effective otoprotective compound in case of noise trauma.

As for `CC(C)C[C@@H](NC(=O)[C@@H](Cc1ccccc1)NC(=O)[C@H]1CCCN1C(=O)[C@@H](CCC(N)=O)NC(=O)[C@H](NC(=O)[C@H]1CCCN1C(=O)[C@@H](CCCNC(=N)N)NC(=O)[C@@H](CO)NC(=O)[C@@H](CCC(N)=O)NC(=O)[C@H](N)CC(=O)O)C(C)C)C(=O)N[C@H](CC(N)=O)C(=O)N[C@H](CC(C)C)C(=O)N[C@@H](C(=O)N[C@@H](C(=O)N1CCC[C@@H]1C(=O)N[C@H](CCCNC(=N)N)C(=O)N[C@H](CCCCN)C(=O)N1CCC[C@@H]1C(=O)N[C@H](CCCNC(=N)N)C(=O)N1CCC[C@@H]1C(=O)N1CCC[C@@H]1C(=O)N[C@H](CCCNC(=N)N)C(=O)N[C@H](CCCNC(=N)N)C(=O)N[C@H](CCCNC(=N)N)C(=O)N[C@H](CCC(N)=O)C(=O)N[C@H](CCCNC(=N)N)C(=O)N[C@H](CCCNC(=N)N)C(=O)N[C@H](CCCCN)C(=O)N[C@H](CCCCN)C(=O)N[C@H](CCCNC(=N)N)C(=O)NCC(=O)O)[C@H](C)O)[C@H](C)O` [D-TAT-IB1(s)] (H-[dD][dQ][dS][dR][dP][dV][dQ][dP][dF][dL][dN][dL][dT][dT][dP][dR][dK][dP][dR][dP][dP][dR][dR][dR][dQ][dR][dR][dK][dK][dR]G-OH), the “prevention of irradiation induced apoptosis” value in the assay on WiDr cells was “able to prevent irradiation induced apoptosis”. Further, the “protection against permanent hearing loss (PTS, 15 days)” value in assay [1] (100 μM in hyaluronic acid gel on round window membrane 30 minutes before noise trauma (120 dB at 6 kHz, 30 minutes)) is on record as “protects substantially against permanent hearing loss from noise trauma if applied preventively before the noise exposure”. Besides, in assay [1] (100 μM in hyaluronic acid gel on round window membrane 30 minutes or 4 hours after noise trauma), the “permanent threshold shift (PTS, 15 days) versus untreated control ears” value is listed as “significantly lower; also recorded: protected against permanent hearing loss even if applied after exposure to excessive noise”. The “dependence of the protective effect on time of administration after noise trauma” value in assay [1] (30 minutes versus 4 hours after trauma) is on record as “in a time-dependent fashion if administered after trauma; also recorded: stronger the earlier”.
